From the NIST ThermoML archive (doi:10.1016/j.jct.2017.08.004)

Test: molar heat capacity at constant pressure
Settings: 101.33 kPa, Crystal

OC[C@@H](O)[C@@H](O)[C@H](O)[C@H](O)CO [D-mannitol]
molar heat capacity at constant pressure [J/K/mol]
Settings | Small sample (50 mg) DSC | relaxation calorimetry
1 K | – | 0.001199
1.923 K | – | 0.006707
2 K | – | 0.007583
2.139 K | – | 0.009192
2.373 K | – | 0.01256
2.634 K | – | 0.01689
2.928 K | – | 0.02301
3 K | – | 0.02469
3.249 K | – | 0.03152
3.602 K | – | 0.04303
3.997 K | – | 0.05809
4 K | – | 0.05872
4.435 K | – | 0.07904
4.92 K | – | 0.1115
5 K | – | 0.1167
5.459 K | – | 0.1535
6 K | – | 0.2067
6.057 K | – | 0.2121
6.719 K | – | 0.2951
7 K | – | 0.3376
7.454 K | – | 0.4159
8 K | – | 0.5187
8.269 K | – | 0.5829
9 K | – | 0.7614
9.171 K | – | 0.8041
10 K | – | 1.071
10.2 K | – | 1.131
11.29 K | – | 1.565
12.52 K | – | 2.163
13.89 K | – | 2.945
15 K | – | 3.67
15.42 K | – | 3.976
17.11 K | – | 5.278
18.99 K | – | 6.927
20 K | – | 7.832
21.08 K | – | 8.9
23.4 K | – | 11.29
25 K | – | 13.01
25.98 K | – | 14.06
28.84 K | – | 17.28
30 K | – | 18.66
32.02 K | – | 20.91
35 K | – | 24.4
35.55 K | – | 25.01
39.45 K | – | 29.53
40 K | – | 30.07
43.79 K | – | 34.41
45 K | – | 35.64
48.59 K | – | 39.53
50 K | – | 41.11
53.92 K | – | 45.29
55 K | – | 46.48
59.84 K | – | 51.45
60 K | – | 51.67
65 K | – | 56.63
66.4 K | – | 58.03
70 K | – | 61.48
73.71 K | – | 64.84
75 K | – | 66.19
80 K | – | 70.77
81.8 K | – | 72.99
85 K | – | 75.22
90 K | – | 79.54
90.8 K | – | 80.09
95 K | – | 83.75
100 K | – | 87.87
100.74 K | – | 87.67
110 K | – | 95.83
110.88 K | – | 96.15
120 K | – | 103.5
120.83 K | – | 104.57
130 K | – | 110.93
130.91 K | – | 112.04
140 K | – | 118.19
140.97 K | – | 119.24
150 K | – | 125.32
151.12 K | – | 126.15
160 K | – | 132.36
161.2 K | – | 133.18
170 K | – | 139.33
171.28 K | – | 140.05
180 K | – | 146.27
181.37 K | – | 147.35
188.15 K | 143.51 | –
189.15 K | 144.52 | –
190 K | – | 153.2
190.15 K | 145.73 | –
191.15 K | 146.73 | –
191.44 K | – | 154.23
192.15 K | 147.51 | –
193.15 K | 148.54 | –
194.15 K | 149.99 | –
195.15 K | 151.06 | –
196.15 K | 152.24 | –
197.15 K | 153.48 | –
198.15 K | 154.54 | –
199.15 K | 155.53 | –
200 K | – | 160.12
200.15 K | 156.46 | –
201.15 K | 157.4 | –
201.56 K | – | 160.73
202.15 K | 158.14 | –
203.15 K | 158.99 | –
204.15 K | 159.96 | –
205.15 K | 160.76 | –
206.15 K | 161.64 | –
207.15 K | 162.47 | –
208.15 K | 163.24 | –
209.15 K | 163.78 | –
210 K | – | 167.07
210.15 K | 164.68 | –
211.15 K | 165.46 | –
211.67 K | – | 167.61
212.15 K | 166.24 | –
213.15 K | 167.09 | –
214.15 K | 167.92 | –
215.15 K | 168.49 | –
216.15 K | 169.55 | –
217.15 K | 170.24 | –
218.15 K | 170.94 | –
219.15 K | 171.88 | –
220 K | – | 174.05
220.15 K | 172.81 | –
221.15 K | 173.38 | –
221.78 K | – | 175.44
222.15 K | 174.15 | –
223.15 K | 174.98 | –
224.15 K | 175.72 | –
225.15 K | 176.52 | –
226.15 K | 177.3 | –
227.15 K | 177.96 | –
228.15 K | 178.66 | –
229.15 K | 179.32 | –
230 K | – | 181.07
230.15 K | 179.98 | –
231.15 K | 180.68 | –
231.88 K | – | 182.4
232.15 K | 181.3 | –
233.15 K | 182.34 | –
234.15 K | 182.94 | –
235.15 K | 183.75 | –
236.15 K | 184.67 | –
237.15 K | 185.22 | –
238.15 K | 186 | –
239.15 K | 186.79 | –
240 K | – | 188.14
240.15 K | 187.46 | –
241.15 K | 188.04 | –
241.89 K | – | 189.63
242.15 K | 188.69 | –
243.15 K | 189.39 | –
244.15 K | 190.16 | –
245.15 K | 190.77 | –
246.15 K | 191.37 | –
247.15 K | 192.19 | –
248.15 K | 192.92 | –
249.15 K | 193.73 | –
250 K | – | 195.26
250.15 K | 194.6 | –
251.15 K | 195.14 | –
252.03 K | – | 197.13
252.15 K | 195.91 | –
253.15 K | 196.71 | –
254.15 K | 197.56 | –
255.15 K | 198.46 | –
256.15 K | 199.17 | –
257.15 K | 199.9 | –
258.15 K | 200.87 | –
259.15 K | 201.58 | –
260 K | – | 202.45
260.15 K | 202.15 | –
261.15 K | 203.09 | –
262.09 K | – | 203.85
262.15 K | 203.84 | –
263.15 K | 204.4 | –
264.15 K | 205.1 | –
265.15 K | 205.89 | –
266.15 K | 206.4 | –
267.15 K | 207.11 | –
268.15 K | 207.89 | –
269.15 K | 208.64 | –
270 K | – | 209.71
270.15 K | 209.5 | –
271.15 K | 210.37 | –
272.12 K | – | 211.38
272.15 K | 211.22 | –
273.15 K | 211.63 | 212.01
274.15 K | 212.27 | –
275.15 K | 213.11 | –
276.15 K | 213.85 | –
277.15 K | 214.68 | –
278.15 K | 215.33 | –
279.15 K | 216.09 | –
280 K | – | 217.04
280.15 K | 216.75 | –
281.15 K | 217.54 | –
282.15 K | 218.34 | –
282.18 K | – | 219
283.15 K | 219.11 | –
284.15 K | 219.88 | –
285.15 K | 220.37 | –
286.15 K | 221.11 | –
287.15 K | 221.79 | –
288.15 K | 222.53 | –
